From patent US8507506B2, “Theophylline derivative inhibits osteoporosis” (Kaohsiung Medical University, priority 2011, dated 2013)
Marks after values point to notes of the source that are not given here.

What was measured:
[1] = tested on: NFATc1 mRNA in RAW264.7 cells; test: RT-PCR, RANKL-induced mRNA expression of NFATc1; type: cell-based; settings: for RANKL-induced mRNA expression level of NFATc1: RAW264.7 cells, 24 hours, CTL 100%, mean ± SEM
Description: (§1) The culture medium was discarded. […] [table] f) Running • A.

[2] = tested on: MMP-9 mRNA in RAW264.7 cells; test: RT-PCR, RANKL-induced mRNA expression of MMP-9; type: cell-based; settings: for RANKL-induced mRNA expression level of MMP-9: RAW264.7 cells, 24 hours, CTL 100%, mean ± SEM
Description: as §1

[3] = tested on: c-Src mRNA in RAW264.7 cells; test: RT-PCR, RANKL-induced mRNA expression of c-Src; type: cell-based; settings: for RANKL-induced mRNA expression level of c-Src: RAW264.7 cells, 24 hours, CTL 100%, mean ± SEM
Description: as §1

[4] = tested on: TRAP activity of RAW264.7 cells induced by RANKL; test: TRAP activity assay; type: cell-based; settings: 10 ng/ml RANKL for 5 days, different concentrations, FIG. 4
Description: 10^3 cells were plated per well in 96-well plates. […] When the reaction fluid became yellow, 0.1 M, 100 μl/well NaOH was added to terminate the reaction, and OD405 was examined in 37° C. b) 3 μl/well supernatant was examined by Bio-Red DC Protein Assay to detect the protein concentration.

[5] = tested on: MIA-induced knee arthritis in Wistar male rats; test: Monosodium iodoacetate (MIA) induced knee arthritis rat model; type: in vivo
[6] = 10 ng/ml RANKL, summary of Table 1

Cn1c(=O)c2c(ncn2CCN2CCN(c3ccccc3Cl)CC2)n(C)c1=O [KMUP-1, 7-[2-[4-(2-Chlorophenyl)piperazin-1-yl]ethyl] theophylline]
effect on mRNA expression of NFATc1 induced by RANKL (in words) [1, 6]: inhibits the mRNA expression
RANKL-induced mRNA expression level of NFATc1 ([1]; RANKL 10 ng/ml + KMUP-1 1 μM): 256.9 ± 7.5%
RANKL-induced mRNA expression level of NFATc1 ([1]; RANKL 10 ng/ml + KMUP-1 2.5 μM): 184.7 ± 4.2% ^b
RANKL-induced mRNA expression level of NFATc1 ([1]; RANKL 10 ng/ml + KMUP-1 5 μM): 161.8 ± 2.9% ^b
RANKL-induced mRNA expression level of NFATc1 ([1]; RANKL 10 ng/ml + KMUP-1 7.5 μM): 132.9 ± 2.4% ^b
RANKL-induced mRNA expression level of NFATc1 ([1]; RANKL 10 ng/ml + KMUP-1 10 μM): 121.5 ± 4.5% ^b
effect on mRNA expression of MMP-9 induced by RANKL (in words) [2, 6]: inhibits the mRNA expression
RANKL-induced mRNA expression level of MMP-9 ([2]; RANKL 10 ng/ml + KMUP-1 1 μM): 1732.4 ± 168.9%
RANKL-induced mRNA expression level of MMP-9 ([2]; RANKL 10 ng/ml + KMUP-1 2.5 μM): 1619.9 ± 179.8%
RANKL-induced mRNA expression level of MMP-9 ([2]; RANKL 10 ng/ml + KMUP-1 5 μM): 1570.9 ± 159.3% ^b
RANKL-induced mRNA expression level of MMP-9 ([2]; RANKL 10 ng/ml + KMUP-1 7.5 μM): 1439.8 ± 188.8% ^b
RANKL-induced mRNA expression level of MMP-9 ([2]; RANKL 10 ng/ml + KMUP-1 10 μM): 1372.0 ± 175.6% ^b
effect on mRNA expression of c-Src induced by RANKL (in words) [3, 6]: not obviously inhibits
RANKL-induced mRNA expression level of c-Src ([3]; RANKL 10 ng/ml + KMUP-1 1 μM): 101.4 ± 4.5%
RANKL-induced mRNA expression level of c-Src ([3]; RANKL 10 ng/ml + KMUP-1 2.5 μM): 103.9 ± 2.7%
RANKL-induced mRNA expression level of c-Src ([3]; RANKL 10 ng/ml + KMUP-1 5 μM): 95.8 ± 2.8% ^
RANKL-induced mRNA expression level of c-Src ([3]; RANKL 10 ng/ml + KMUP-1 7.5 μM): 91.5 ± 4.5% ^
RANKL-induced mRNA expression level of c-Src ([3]; RANKL 10 ng/ml + KMUP-1 10 μM): 98.6 ± 6.2% ^
TRAP activity induced by RANKL [4]: can be inhibited, and the inhibiting effect is related to dose
holes and defects of cartilage tissues (H&E slices) ([5]; oral 1 mg/kg): the holes and defects from the damages of the MIA still exist
inflammatory cell infiltrations (H&E slices) ([5]; oral 1 mg/kg): there are still many inflammatory cell infiltrations
holes and defects of cartilage tissues (H&E slices) ([5]; oral 2.5 mg/kg): become much better
inflammatory cell infiltrations (H&E slices) ([5]; oral 2.5 mg/kg): the inflammatory cell infiltrations become less
damages of articular cartilage caused by MIA (gross appearance) ([5]; oral 2.5 mg/kg and 5 mg/kg, one week before and one week after MIA): can reduce the damages caused by the MIA
holes and defects of cartilage tissues (H&E slices) ([5]; oral 5 mg/kg): close to the recovery condition of the sham group
inflammatory cell infiltrations (H&E slices) ([5]; oral 5 mg/kg): there are still some inflammatory cell infiltrations
mast cell infiltrations (toluidine blue slices) ([5]; oral 1, 2.5, 5 mg/kg): the mast cell infiltrations present a trend of reducing according to the higher dose
